Laboratory results published in the supplement of paper PMC5412046.
Structures can show the parent of a compound that is named as a salt.

How the values were obtained:
SB.mhdgc-1 [1] = test: area under the dose-response curve of % viability (trapezoidal, 11 doses) (% viability x log10 concentration); higher = less cytotoxic; conditions: SB.mhdgc-1 (hereditary c.1380delA CDH1 gastric cancer)
How it was run: (§1)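 Each entry is viability relative to DMSO, given either at the highest concentration tested or as a trapezoidal area under the curve. Gastric cancer cells from hereditary or sporadic patients (500 cells in 5 μL medium per 1536 well) received compound in DMSO at 11 threefold-diluted concentrations, 23 nL by pintool. Luminescence from CellTiter-Glo was read after 48 h.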

SB.msgc-1 [2] = test: as above; conditions: SB.msgc-1 (sporadic gastric cancer)
How it was run: as §1

SB.mhdgc-1 [3] = test: viability at highest tested concentration (MAXR) relative to DMSO; higher = less cytotoxic; conditions: SB.mhdgc-1 (hereditary c.1380delA CDH1 gastric cancer)
How it was run: as §1

SB.msgc-1 [4] = test: as above; conditions: SB.msgc-1 (sporadic gastric cancer)
How it was run: as §1

| SMILES | area under the dose-response curve (SB.mhdgc-1 [1]) | area under the dose-response curve (SB.msgc-1 [2]) | viability (SB.mhdgc-1 [3]) [%] | viability (SB.msgc-1 [4]) [%] |
| --- | --- | --- | --- | --- |
| Cc1cc(O)c2c(c1)C(=O)c1cc(O)cc(O)c1C2=O [Emodin] (top concentration 46.0829 µM) | 548 | 546 | 80.4 | 88.6 |
| C[C@H](NC(=O)C(=O)Nc1ccccc1C(C)(C)C)C(=O)N[C@@H](CC(=O)O)C(=O)COc1c(F)c(F)cc(F)c1F [Emricasan] (top concentration 46.0829 µM) | 537 | 574 | 105 | 84.6 |
| NC/1=N/C(=O)N(/C=C1F)[C@H]2CS[C@H](CO)O2 [Emtricitabine] (top concentration 46.0829 µM) | 534 | 520 | 112 | 120 |
| CCOC(=O)[C@H](CCc1ccccc1)N[C@@H](C)C(=O)N1CCC[C@H]1C(=O)O [Enalapril maleate] (top concentration 46.0829 µM) | 504 | 577 | 73 | 82.3 |
| CC/C(=C(/c1ccc(O)cc1)c1ccc(OCCNC)cc1)c1ccccc1 [Endoxifen] (top concentration 46.0829 µM) | 352 | 522 | 4.91 | 34.5 |
| CCN1\C=C(\C(O)=O)C(=O)C2=C1N=C(N3CCNCC3)C(=C2)F [Enoxacin] (top concentration 46.0829 µM) | 397 | 414 | 65.9 | 80.9 |
| CC1(C)[C@@H](O)CC[C@@]2(C)[C@H]1CC[C@]3(C)[C@@H]2C(=O)\C=C/4[C@@H]5C[C@](C)(CC[C@]5(C)CC[C@@]34C)C(O)=O [Enoxolone] (top concentration 46.0829 µM) | 505 | 565 | 57.4 | 98.3 |
| NC/1=N/C(=O)C2=C(N1)[N](C=N2)[C@@H]3C[C@H](O)[C@@H](CO)C3=C [Entecavir] (top concentration 46.0829 µM) | 512 | 494 | 40.3 | 58.3 |
| Nc1ccccc1NC(=O)c1ccc(CNC(=O)OCc2cccnc2)cc1 [Entinostat] (top concentration 46.0829 µM) | 506 | 390 | 44.9 | 11 |
| C[N]1C=C(C2=CC=CC=C12)\C3=C(\C(=O)NC3=O)C4=C[N](C5CCN(CC5)CC6=NC=CC=C6)C7=C4C=CC=C7 [Enzastaurin] (top concentration 46.0829 µM) | 447 | 486 | 37.4 | 31.4 |
| CC(/C=C1\SC(=S)N(CC(=O)O)C1=O)=C\c1ccccc1 [Epalrestat] (top concentration 46.0829 µM) | 499 | 565 | 84.9 | 104 |
| CNC[C@H](O)c1ccc(O)c(O)c1 [Epinephrine] (top concentration 92.1659 µM) | 484 | 514 | 20.7 | 78.5 |
| COc1cccc2c1C(=O)c1c(O)c3c(c(O)c1C2=O)C[C@@](O)(C(=O)CO)C[C@@H]3O[C@H]1C[C@H](N)[C@@H](O)[C@H](C)O1 [Epirubicin hydrochloride] (top concentration 46.0829 µM) | 353 | 390 | 24.7 | 36.3 |
| COC(=O)[C@@H]1CC2=CC(=O)CC[C@]2(C)[C@@]23O[C@@H]2C[C@@]2(C)[C@@H](CC[C@@]24CCC(=O)O4)[C@H]13 [Eplerenone] (top concentration 46.0829 µM) | 555 | 524 | 127 | 111 |
| C/C(=C\c1csc(C)n1)[C@@H]1C[C@@H]2O[C@@H]2CCC[C@H](C)[C@H](O)[C@@H](C)C(=O)C(C)(C)[C@@H](O)CC(=O)O1 [Epothilone A] (top concentration 46.0829 µM) | 246 | 256 | 52.1 | 42.9 |
| C/C(=C\c1csc(C)n1)[C@@H]1C[C@@H]2O[C@]2(C)CCC[C@H](C)[C@H](O)[C@@H](C)C(=O)C(C)(C)[C@@H](O)CC(=O)O1 [Epothilone B] (top concentration 46.0829 µM) | 245 | 217 | 33.9 | 46.2 |
| O=C(O)CSCC(=O)NC1CCSC1=O (configuration not stated) [Erdosteine] (top concentration 46.0829 µM) | 591 | 547 | 143 | 112 |
| CC(C)C(C)/C=C/C(C)C1CCC2C3=CC=C4CC(O)CCC4(C)C3CCC21C (configuration not stated) [Ergosterol] (top concentration 46.0829 µM) | 512 | 521 | 96.5 | 97.5 |
| C#Cc1cccc(Nc2ncnc3cc(OCCOC)c(OCCOC)cc23)c1 [Erlotinib hydrochloride] (top concentration 46.0829 µM) | 379 | 388 | 33.1 | 22.1 |
| Oc1ccc([C@@H]2Oc3ccc(O)cc3[C@@H]3CCC[C@@H]32)cc1 [Erteberel] (top concentration 46.0829 µM) | 492 | 278 | 16.6 | 12.8 |
| CC[C@H]1OC(=O)[C@H](C)[C@@H](O[C@H]2C[C@@](C)(OC)[C@@H](O)[C@H](C)O2)[C@H](C)[C@@H](O[C@@H]2O[C@@H](C)C[C@H](N(C)C)[C@H]2O)[C@](C)(O)C[C@@H](C)C(=O)[C@H](C)[C@@H](O)[C@]1(C)O [Erythromycin] (top concentration 46.0829 µM) | 445 | 515 | 91 | 80.6 |
| C[C@]12CC[C@@H]3c4ccc(O)cc4CC[C@H]3[C@@H]1[C@@H](O)[C@@H](O)[C@@H]2O [Estetrol] (top concentration 46.0829 µM) | 439 | 549 | 7.6 | 78.6 |

| SMILES | area under the dose-response curve (SB.mhdgc-1 [1]) | area under the dose-response curve (SB.msgc-1 [2]) | viability (SB.mhdgc-1 [3]) [%] | viability (SB.msgc-1 [4]) [%] |
| --- | --- | --- | --- | --- |
| C[C@]12CC[C@@H]3c4ccc(O)cc4CC[C@H]3[C@@H]1CC[C@@H]2O [Estradiol] (top concentration 46.0829 µM) | 565 | 462 | 74.8 | 20.5 |
| C[C@]12CC[C@@H]3c4ccc(O)cc4CC[C@H]3[C@@H]1C[C@@H](O)[C@@H]2O [Estriol] (top concentration 46.0829 µM) | 513 | 517 | 106 | 91 |
| C[C@]12CCC3c4ccc(O)cc4CCC3C1CCC2=O (some centres not stated) [Estrone] (top concentration 46.0829 µM) | 449 | 522 | 87.7 | 103 |
| C#C[C@]1(O)CC[C@H]2[C@@H]3CCc4cc(O)ccc4[C@H]3CC[C@@]21C [Ethinylestradiol] (top concentration 46.0829 µM) | 496 | 290 | 3.31 | 2.36 |
| CCc1cc(C(N)=S)ccn1 [Ethionamide] (top concentration 46.0829 µM) | 565 | 540 | 129 | 108 |
| CC\12CCC(=O)\C=C1CCC3C2CCC4(C)C3CCC4(O)C#C (configuration not stated) [Ethisterone] (top concentration 46.0829 µM) | 444 | 499 | 67.7 | 92.5 |
| CCC1(C)CC(=O)NC1=O (configuration not stated) [Ethosuximide] (top concentration 46.0829 µM) | 499 | 537 | 100 | 111 |
| CCc1cccc2c3c([nH]c12)C(CC)(CC(=O)O)OCC3 (configuration not stated) [Etodolac] (top concentration 46.0829 µM) | 580 | 462 | 98.9 | 89.3 |
| CCOC(=O)c1cncn1[C@H](C)c1ccccc1 [Etomidate] (top concentration 46.0829 µM) | 593 | 533 | 107 | 90.1 |
| COc1cc([C@@H]2c3cc4c(cc3[C@@H](O[C@@H]3O[C@@H]5CO[C@@H](C)O[C@H]5[C@H](O)[C@H]3O)[C@H]3COC(=O)[C@H]23)OCO4)cc(OC)c1O [Etoposide] (top concentration 46.0829 µM) | 264 | 400 | 30.1 | 41.2 |
| CO[C@H]1C[C@@H]2CC[C@@H](C)[C@@](O)(O2)C(=O)C(=O)N2CCCC[C@H]2C(=O)O[C@H]([C@H](C)C[C@@H]2CC[C@@H](OCCO)[C@H](OC)C2)CC(=O)[C@H](C)/C=C(/C)[C@@H](O)[C@@H](OC)C(=O)[C@H](C)C[C@H](C)\C=C/C=C\C=C/1C [Everolimus] (top concentration 46.0829 µM) | 356 | 466 | 41 | 79.6 |
| CN1c2ccccc2C(=O)N2CCc3c([nH]c4ccccc34)C21 (configuration not stated) [Evodiamine] (top concentration 46.0829 µM) | 546 | 531 | 58.1 | 65 |
| C[C@]12CC[C@H]3[C@@H](CC(=C)\C4=C\C(=O)\C=C/[C@]34C)[C@@H]1CCC2=O [Exemestane] (top concentration 46.0829 µM) | 526 | 523 | 73.9 | 72.6 |
| CCOC(=O)[C@@H](N)CCC(=O)N[C@@H](CSCc1ccccc1)C(=O)N[C@@H](C(=O)OCC)c1ccccc1 [Ezatiostat] (top concentration 46.0829 µM) | 433 | 476 | 4.09 | 41.6 |
| O=C1C(CCC(O)c2ccc(F)cc2)C(c2ccc(O)cc2)N1c1ccc(F)cc1 (configuration not stated) [Ezetimibe] (top concentration 46.0829 µM) | 534 | 534 | 103 | 94.6 |
| CCC(=O)N[C@H]1CC[C@H](C(=O)N(C)c2ccc(-c3nc4ccccc4o3)cc2)C1 [FASN BI] (top concentration 46.0829 µM) | 402 | 370 | 24.3 | 27.6 |
| COC1=CC=CC=C1C2=CC=CC(=C2)C/3=C(O)/C4=CC(=C(Cl)C=C4NC3=O)C#N [FASN MRK] (top concentration 92.1659 µM) | 516 | 585 | 73.3 | 69.7 |
| Cc1nc(C(=O)NCC(=O)O)c(O)c2ccc(Oc3ccccc3)cc12 [FG-4592] (top concentration 46.0829 µM) | 513 | 580 | 86.4 | 98.3 |
| C=CC[C@@H]1/C=C(\C)C[C@H](C)C[C@H](OC)[C@H]2O[C@@](O)(C(=O)C(=O)N3CCCC[C@H]3C(=O)O[C@H](/C(C)=C/[C@@H]3CC[C@@H](O)[C@H](OC)C3)[C@H](C)[C@@H](O)CC1=O)[C@H](C)C[C@@H]2OC [FK-506] (top concentration 46.0829 µM) | 462 | 533 | 86.3 | 68.7 |
| COCCNCCCn1c(C(=O)CF)c(-c2ccc(C)cc2)c2c(N)ncnc21 [FMK-MEA] (top concentration 46.0829 µM) | 552 | 548 | 96.4 | 74.9 |
| CC(=O)OCC(CCn1cnc2cnc(N)nc21)COC(C)=O [Famciclovir] (top concentration 46.0829 µM) | 546 | 553 | 121 | 111 |
